Each structure is given as a SMILES string. Bounds are passed on as bounds.

Kd and IC50 data for eleven molecules are collected here from patent publication US20240025906A1 (NEURON23, INC., priority 2022, published 2024).

Experiment [1] concerns the target T1, TYK2 JH2 (Homo sapiens, UniProt P29597).
T1 construct: purchased DiscoverX (KINOMEscan KdELECT service); host or cells: E. coli BL21-derived (T7 phage display) or HEK-293
Kind of experiment: TYK2 JH2 binding assay (KINOMEscan KdELECT competitive binding). The note with it: TYK2 JH2 domain, KINOMEscan KdELECT (Assay A); read-out: Biochemical TYK2_DiscoverX_JH2_BND_Kd. The method, boiled down:
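JH2-domain fragment, expressed as T7 phage tag in BL21-derived E. coli or DNA-tagged from HEK-293, competed with test compound against bead-immobilized biotinylated ligand in binding buffer (0.9% DMSO). 1 h shaking at room temperature; bound kinase eluted with 0.5 μM free ligand and quantified by qPCR. Kd from 11-point 3-fold dilutions.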

In experiment [2] the test system is JAK1/TYK2 pSTAT5 (Tyr694/699) in THP-1 cell line. Put plainly: IFNa-stimulated JAK1/TYK2 pSTAT5 (Tyr694/699) inhibition cellular assay, AlphaLISA. The following applies: Homo sapiens; THP-1 cells, IFNa-stimulated, AlphaLISA (Assay B); read-out: Cellular_THP1_IFNa-pSTATS_TYK2. Format: cell-based. In short, it runs like this: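 Compound dilutions were dispensed first, and HBSS-suspended THP-1 cells were added on top (final top concentration 10000 nM, 6-fold series). After 1 h at 37 °C, IFNa (100 ng/mL as added) was applied for 30 min. Cells were then lysed and pSTAT5 was quantified by AlphaLISA.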
For orientation: Bead proximity is the source of the signal in Alpha formats.

T1 sequence (P29597 589-875 limits assumed): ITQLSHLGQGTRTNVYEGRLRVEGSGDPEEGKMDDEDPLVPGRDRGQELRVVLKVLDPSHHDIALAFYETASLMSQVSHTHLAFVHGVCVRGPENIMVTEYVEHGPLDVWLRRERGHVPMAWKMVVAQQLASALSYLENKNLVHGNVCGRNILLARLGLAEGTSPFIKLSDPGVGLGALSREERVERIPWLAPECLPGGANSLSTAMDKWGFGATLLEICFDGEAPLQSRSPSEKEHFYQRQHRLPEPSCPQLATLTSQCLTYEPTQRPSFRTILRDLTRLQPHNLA

Consider `CNc1ncc(C#Cc2ccc(OCC3CCO3)cc2)c2cc(NC(=O)C3CC3)ncc12` (stereo not shown) [Example 702, N-(8-(methylamino)-5-((4-(oxetan-2-ylmethoxy)phenyl)ethynyl)-2,7-naphthyridin-3-yl)cyclopropanecarboxamide], for which the Kd in experiment [1] is not above 100 nM. In addition, in experiment [2], the IC50 is not above 500 nM.
With `CNc1ncc(C#Cc2ccc(OC[C@@H](C)OC)cc2)c2cc(NC(=O)C3CC3)ncc12` [Example 703, (R)—N-(5-((4-(2-methoxypropoxy)phenyl)ethynyl)-8-(methylamino)-2,7-naphthyridin-3-yl)cyclopropanecarboxamide], in experiment [1], the Kd is not above 100 nM. Also, in experiment [2], the IC50 was not above 500 nM.
The corresponding values for `CNc1ncc(C#Cc2ccc(OC[C@H](C)OC)cc2)c2cc(NC(=O)C3CC3)ncc12` [Example 704, (S)—N-(5-((4-(2-methoxypropoxy)phenyl)ethynyl)-8-(methylamino)-2,7-naphthyridin-3-yl)cyclopropanecarboxamide] are not above 100 nM and not above 500 nM.
The corresponding values for `CNc1ncc(C#Cc2ccc(OC3CN(C(C)=O)C3)cc2)c2cc(NC(=O)C3CC3)ncc12` [Example 705, N-(5-((4-((1-acetylazetidin-3-yl)oxy)phenyl)ethynyl)-8-(methylamino)-2,7-naphthyridin-3-yl)cyclopropanecarboxamide] are not above 100 nM and not above 500 nM.
The matching figures for `CNc1ncc(C#Cc2ccc(OC3(C)COC3)cc2)c2cc(NC(=O)C3CC3)ncc12` [Example 706, N-(8-(methylamino)-5-((4-((3-methyloxetan-3-yl)oxy)phenyl)ethynyl)-2,7-naphthyridin-3-yl)cyclopropanecarboxamide]: not above 100 nM and not above 500 nM.
On to `CNc1ncc(C#Cc2ccc(OC3COC3)cc2)c2cc(NC(=O)C3CC3)ncc12` [Example 707, N-(8-(methylamino)-5-((4-(oxetan-3-yloxy)phenyl)ethynyl)-2,7-naphthyridin-3-yl)cyclopropanecarboxamide], for which the Kd in experiment [1] was not above 100 nM. The IC50 in experiment [2] was not above 500 nM.
The matching figures for `CNc1ncc(C#Cc2ccc(N3CCO[C@H](C)C3)cc2)c2cc(NC(=O)C3CC3)ncc12` [Example 708, (R)—N-(8-(methylamino)-5-((4-(2-methylmorpholino)phenyl)ethynyl)-2,7-naphthyridin-3-yl)cyclopropanecarboxamide]: not above 100 nM and not above 500 nM.
Consider `CNc1ncc(C#Cc2ccc(N3CCO[C@@H](C)C3)cc2)c2cc(NC(=O)C3CC3)ncc12` [Example 709, (S)—N-(8-(methylamino)-5-((4-(2-methylmorpholino)phenyl)ethynyl)-2,7-naphthyridin-3-yl)cyclopropanecarboxamide], for which the Kd in experiment [1] was not above 100 nM. Also, the IC50 in experiment [2] is not above 500 nM.
With `CNc1ncc(C#Cc2ccc(OCC(C)(C)C#N)cc2)c2cc(NC(=O)C3CC3)ncc12` [Example 710, N-(5-((4-(2-cyano-2-methylpropoxy)phenyl)ethynyl)-8-(methylamino)-2,7-naphthyridin-3-yl)cyclopropanecarboxamide], in experiment [1], the Kd was not above 100 nM. Also, in experiment [2], the IC50 is not above 500 nM.
The matching figures for `CNc1ncc(C#Cc2ccc(Oc3ncn(C)n3)cc2)c2cc(NC(=O)C3CC3)ncc12` [Example 711, N-(5-((4-((1-methyl-1H-1,2,4-triazol-3-yl)oxy)phenyl)ethynyl)-8-(methylamino)-2,7-naphthyridin-3-yl)cyclopropanecarboxamide]: not above 100 nM and not above 500 nM.
The corresponding values for `CNc1ncc(C#Cc2ccc(OCC3CN(C)C3)cc2)c2cc(NC(=O)C3CC3)ncc12` [Example 712, N-(8-(methylamino)-5-((4-((1-methylazetidin-3-yl)methoxy)phenyl)ethynyl)-2,7-naphthyridin-3-yl)cyclopropanecarboxamide] are not above 100 nM and not above 500 nM.
